Results: patent US8435947B2, “Endothelial nitric oxide synthase antagonists and uses thereof for inhibiting oxygen toxicity” (Medical College of Georgia Research Institute, Inc., priority 2010, dated 2013)

Legend:
[1] = tested on: purified eNOS; assay: L-citrulline assay with purified eNOS; format: biochemical, human; settings: peptide 20 μm; for β-actin-induced increase in L-citrulline production: β-actin 2.0 μm
Description: (§1) Wild-type and mutant eNOS proteins in COS-7 cells were purified. The catalytic activity of purified eNOS mutant protein was assayed by the measurement ofl-[^3H]citrulline formation from 1-[^3H]arginine as reported previously (Su, Y., et al. (2003) Am. J. Physiol. Cell Physiol. 284, C1542-49). To determine NADPH consumption by eNOS, 0.3 mm NADPH was added to 200 μl of reaction mix containing 1 μg eNOS, 1 μM FAD, 1 μmM FMN, 10 μg/ml calmodulin, 100 μMm L-arginine, 1 mM CaCl2, 10 μg/ml calmodulin, and 2.5 mM ATP. The reaction was monitored at […] for 10 min. NADPH consumption was calculated by using a molar extinction coefficient 6.22 mm^−·cm^−1. The superoxide formation from purified eNOS mutant was measured by spin trapping and EPR spectroscopy.

[2] = tested on: purified eNOS; assay: superoxide generation by purified eNOS, spin-trapping EPR spectroscopy; format: biochemical, human; settings: peptide 20 μm; for β-actin-induced decrease in superoxide formation: β-actin 2.0 μm
Description: eNOS-derived superoxide generation was measured by electron paramagnetic resonance (EPR) spectroscopy and spin trapping as previously described (Sud, N., et al. (2008) Am. J. Physiol. Cell Physiol. 294, C1407-18). 50 μl of reaction mix containing 50 mM HEPES buffer, 1 mM NADPH, 100 μM Larginine, 1 mM CaCl2, 10 μg/ml calmodulin, and 1 μg of purified eNOS were incubated at 37° C. for 60 min. 12.5 μl of spin probe N1-hydroxy-3-methoxy-carbonyl-2,2,5,5-tetramethyl-pyrrolidine (CMH) in EPR buffer were added to the reaction mix. 35 μl of the final reaction mix were loaded into a 50-μl capillary tube and analyzed with a MiniScopeMS200 EPR (Magnetech, Berlin, Germany). A reaction curve was generated by adding 1 unit/ml of xanthine oxidase into 500 μM xanthine solution in buffered PBS (pH 7.4), which contains 5 μM diethyldithiocarbamate and 25 μMm desferrioxamine to inhibit any conversion of superoxide into either hydrogen peroxide or hydroxyl radical via Fenton reaction. Reactions were allowed to proceed at 25° C. for up to 40 min. Following incubation, ˜35 μl of each reaction mixture was loaded into a 50 μl capillary tube and analyzed immediately with EPR spectroscopy. EPR spectra were analyzed for amplitude using […] software (version 2.02, Magnettech). Given that 1 unit of xanthine oxidase will convert 1 μmol of xanthine per minute at 25° C., based on this standard curve, it was calculated that 1 EPR amplitude units is equivalent of 0.35 pmol of superoxide.

[3] = tested on: purified eNOS; assay: NO (NOx) production by purified eNOS in vitro; format: biochemical, human; settings: peptide 20 μm; for β-actin-induced increase in NO production: β-actin 2.0 μm
Description: NO production was determined by measuring NOx (NO2 and NO3). Purified eNOS and β-actin were preincubated at room temperature for 30 min and then added to a 50-μl reaction mix containing 50 mM HEPES buffer, 1 mM NADPH, 100 μmM Larginine, 1 mmM CaCl2, 10 μg/ml calmodulin, 4 μM BH4. The mixture was incubated at 37° C. for 30 min. 40 μl of the reaction mix were loaded to the SIEVERS machine for NOx measurement according to standard manufacturer's instructions as previously described (Church, J. E., and Fulton, D. (2006) J. Biol. Chem. 281, 1477-88). For experiments with ABS peptides, β-actin and peptides were preincubated at room temperature for 20 min before eNOS protein was added.

[4] = tested on: purified eNOS; assay: NADPH consumption assay with purified eNOS; format: biochemical, human; settings: peptide 20 μm, β-actin 2.0 μm, absence of BH4
Description: as §1

[5] = target: T1, F-actin (polymerized human β-actin) (Homo sapiens, UniProt P60709); assay: F-actin binding spin-down assay; settings: peptide 10 μM, 23 μM F-actin, 30 min, 150,000×g 2 h
T1 construct: purchased Cytoskeleton, Inc. (Denver, Co)
Description: The binding capacities of the peptides to β-actin were measured by using an F-actin binding spin-down assay kit from Cytoskeleton, Inc. (Denver, Co). Monomeric human β-actin was polymerized into F-actin in F-actin buffer (5 mM Tris-HCl, pH 7.8, 1 mM ATP, 0.5 mM DTT, 0.2 mmM CaCl2, 0.2 mM MgCl2, and 100 mM KCl) for 1 h at 24° C. ABS peptides at final concentrations of 10 μM were incubated alone or with 23 μM F-actin in F-actin buffer for 30 min in a total volume of 50 μl. The mixtures were centrifuged at 150,000×g for 2 h at 24° C. in a Beckman TLA-100 rotor. Supernatant and pellet fractions were resuspended in loading buffer and subjected to SDS-PAGE. The gel was stained with Coomassie Blue. The density of the band was measured using Software Image J.
Actin binding capabilities of the synthesized ABS peptides corresponding to putative ABSs in eNOS were evaluated by the F-actin binding spin-down assay. ABS peptides 326 (P326), control peptides, ABS peptides 492 (P492), and ABS peptides 245 (P245) at final concentrations of 10 μm were incubated for 30 min alone or with 23 μm F-actin in F-actin buffer containing 2.5 μM ATP and 2.5 μM DTT. After high speed centrifugation at 150,000×g for 2 h, the supernatants and pellets were subjected to SDS-PAGE analysis.

[6] = tested on: PAEC; settings: peptide 20 μM, 95% oxygen 24 h
Description: (§2) Third- to sixth-passage cells in monolayer culture were maintained in RPMI 1640 medium containing 4% fetal bovine serum and antibiotics (10 units/ml penicillin, 100 μg/ml streptomycin, 20 μg/ml gentamicin, and 2 μg/ml Fungizone) and were used 2 or 3 days after confluence.

[7] = tested on: PAEC; assay: peroxynitrite formation in hyperoxic PAEC (APF fluorescence); format: cell-based, pigs; settings: 95% oxygen 24 h, uric acid 100 μM
Description: as §2
To reduce β-actin availability to eNOS, the β-actin mRNA was silenced using its siRNA as previously reported by us (Kondrikov, D., et al. (2006) Am. J. Physiol. Lung Cell Mol. Physiol. 290, L41-L50).

[8] = tested on: pulmonary artery endothelial cells; assay: endothelial monolayer wound repair; format: cell-based, pigs; settings: PEG-SOD 100 units/ml, NOC-18 10 μm
Description: Pulmonary artery endothelial cells were incubated with ABS peptides for 3 h. Then endothelial monolayer wound repair in the absence and presence of PEG-SOD (100 units/ml) and NOC-18 (10 μm) was measured as previously reported (Su, Y., et al. (2006) FASEB J. 20, 1443-51). Endothelial monolayer wound repair distance was expressed as the width of the wound before treatment subtracted by that after treatment.

[9] = tested on: pulmonary artery endothelial cells; assay: superoxide formation in endothelial cells (CMH spin trap, EPR); format: cell-based, pigs; settings: ETU 100 μm
Description: (§3) To measure NO production, endothelial cells were incubated with ABS peptides for 3 h. Then ionomycin (2 μM) was added to the cells. After an additional 30 min, culture medium was collected and ethanol-precipitated to remove proteins. 50 μl of the reaction mix were loaded to the SIEVERS machine for NOx measurement as described above. For superoxide assay, after incubation with ABS peptides, the spin trap CMH was added to the cells. Superoxide from cells was trapped for 1 h, and then cells were scraped and subjected to EPR spectroscopy.

[10] = tested on: COS-7 cells; assay: superoxide formation in COS-7 cells transfected with wild type or mutant eNOS; format: cell-based; settings: ETU 100 μm or PEG-SOD
From the text: Human eNOS gene (GenBank™ M93718.1) was cloned into HindIII and XbaI sites of pcDNA3 vector and regarded as wild-type eNOS. […] The site-directed mutagenesis was custom-made by Retrogen (San Diego, Calif.). The sequences of both strands of the gene in the mutated region were verified by using ABI 3730 automated sequencer. Plasmids containing wild-type eNOS cDNA or eNOS mutant cDNA were transfected into COS-7 cells using Lipofectamine LTX with PLUS reagent (Invitrogen, Carlsbad, Calif.) according to the manufacturer's protocol. 48 h after transfection, cells were used for co-immunoprecipitation and assays for NO and superoxide generation.
After wild-type and eNOS mutant transfection, ionomycin (2 μm) was added to the cells. After 30 min of incubation, culture medium was collected and ethanol-precipitated to remove proteins. 50 μl of the reaction mix were loaded to the SIEVERS machine for NOx measurement according to standard manufacturer's instructions (Church, J. E., and Fulton, D. (2006) J. Biol. Chem. 281, 1477-88). In some experiments, N^G-nitro-1-arginine methyl ester (L-NAME), a specific eNOS inhibitor, was used to inhibit NO production. […] For superoxide assay, after incubation with ABS peptides, the spin trap CMH was added to the cells. […] Protein contents in the cell lysates were determined by Lowry's method.

[11] = tested on: pulmonary artery endothelial cells; assay: NO production in endothelial cells (NOx, SIEVERS); format: cell-based, pigs
Description: After wild-type and eNOS mutant transfection, ionomycin (2 μm) was added to the cells. After 30 min of incubation, culture medium was collected and ethanol-precipitated to remove proteins. 50 μl of the reaction mix were loaded to the SIEVERS machine for NOx measurement according to standard manufacturer's instructions (Church, J. E., and Fulton, D. (2006) J. Biol. Chem. 281, 1477-88). In some experiments, N^G-nitro-1-arginine methyl ester (L-NAME), a specific eNOS inhibitor, was used to inhibit NO production. […] For superoxide assay, after incubation with ABS peptides, the spin trap CMH was added to the cells. Superoxide from cells was trapped for 1 h, and then cells were scraped and subjected to EPR spectroscopy as previously described (Sud, N., et al. (2008) Am. J. Physiol. Cell Physiol. 294, C1407-18). Protein contents in the cell lysates were determined by Lowry's method.
as §3, with “Superoxide from cells was trapped for 1 h, and then cells were scraped and subjected to EPR spectroscopy.” left out

[12] = tested on: PAEC; assay: superoxide radicals in hyperoxic PAEC (DHE fluorescence); format: cell-based, pigs; settings: 95% oxygen 24 h, tiron 5 mM
Description: After hyperoxic exposure, cells were loaded with 10 μM dihydroethidine (DHE) for 30 min. […] The excitation and emission wavelengths were 510 nm and 590 nm.

## AGARAYAA [control peptide for peptide 326, reference compound]
[1]
  β-actin-induced increase in L-citrulline production: did not affect β-actin-induced changes in the production of NO, L-citrulline, and superoxide from eNOS
[2]
  β-actin-induced decrease in superoxide formation: did not affect β-actin-induced changes in the production of NO, L-citrulline, and superoxide from eNOS
[3]
  β-actin-induced increase in NO production: did not affect β-actin-induced changes in the production of NO, L-citrulline, and superoxide from eNOS

## LGLRWYAL [ABS peptide 326]
[1]; without β-actin
  L-citrulline production from eNOS, peptide per se: did not affect NO and L-citrulline production and superoxide formation
[1]
  β-actin-induced increase in L-citrulline production: prevented β-actin-induced increase in NO and L-citrulline production
[4]
  β-actin-induced decrease in NADPH consumption: prevented β-actin-induced decrease in NADPH consumption
[2]; without β-actin
  superoxide formation from eNOS, peptide per se: did not affect NO and L-citrulline production and superoxide formation
[2]
  β-actin-induced decrease in superoxide formation: prevented
[3]; without β-actin
  NO production from eNOS, peptide per se: did not affect NO and L-citrulline production and superoxide formation
[3]
  β-actin-induced increase in NO production: prevented β-actin-induced increase in NO and L-citrulline production

## NSQLVRYAGYRQQDGSVRGDPANVEITEL [ABS peptide 245]
[5]
  peptide pulled down to the pellets with F-actin: not pulled down to the pellets with F-actin

## RKKRRQRRRAAGARAYAA [control peptide TAT, reference compound]
[6]
  tyrosine nitration of proteins at 250, 100, 75, and 60 kDa, hyperoxia versus normoxia: hyperoxia induced the increases in tyrosine nitration of proteins

## O=c1[nH]c(=O)c2[nH]c(=O)[nH]c2[nH]1 [uric acid, reference compound]
[7]
  hyperoxia-induced increase in APF fluorescence intensity (peroxynitrite): prevented hyperoxia-induced increase in the fluorescence intensity

## NCCN(CCN)/[N+]([O-])=N/O [NOC-18, reference compound]
[8]
  P326TAT-induced decrease in monolayer wound repair: prevented P326TAT-induced decrease in monolayer wound repair

## CCSC(=N)N [ETU, 2-ethyl-2-thiopseudourea, reference compound]
[9]
  P326TAT-induced increase in superoxide formation: inhibited P326TAT-induced increase in superoxide formation
[10]
  superoxide generated from COS-7 cells, wild type versus eNOS mutant, in the presence of the agent: the amounts of superoxide generated from COS-7 cells containing wild type and eNOS mutant were comparable

## COC(=O)[C@@H](N)CCCNC(=N)N[N+](=O)[O-] [L-NAME, N^G-nitro-1-arginine methyl ester, reference compound]
[11]
  inhibition of NO production: 90%

## O=S(=O)(O)c1cc(O)c(O)c(S(=O)(=O)O)c1 [tiron]
[12]
  increase in DHE fluorescence intensity (superoxide radical) in hyperoxic PAEC: prevented the increase in the fluorescence intensity in hyperoxic PAEC
